Assay results taken from the Kinase Knowledgebase extract (Sharma et al. 2016).

Each compound was assayed against ROCK2 (human) (UniProt O75116) (assay: Inhibition of ROCK2 Kinase Activity).
Sequence of ROCK2 (human) (O75116 whole entry, looked up): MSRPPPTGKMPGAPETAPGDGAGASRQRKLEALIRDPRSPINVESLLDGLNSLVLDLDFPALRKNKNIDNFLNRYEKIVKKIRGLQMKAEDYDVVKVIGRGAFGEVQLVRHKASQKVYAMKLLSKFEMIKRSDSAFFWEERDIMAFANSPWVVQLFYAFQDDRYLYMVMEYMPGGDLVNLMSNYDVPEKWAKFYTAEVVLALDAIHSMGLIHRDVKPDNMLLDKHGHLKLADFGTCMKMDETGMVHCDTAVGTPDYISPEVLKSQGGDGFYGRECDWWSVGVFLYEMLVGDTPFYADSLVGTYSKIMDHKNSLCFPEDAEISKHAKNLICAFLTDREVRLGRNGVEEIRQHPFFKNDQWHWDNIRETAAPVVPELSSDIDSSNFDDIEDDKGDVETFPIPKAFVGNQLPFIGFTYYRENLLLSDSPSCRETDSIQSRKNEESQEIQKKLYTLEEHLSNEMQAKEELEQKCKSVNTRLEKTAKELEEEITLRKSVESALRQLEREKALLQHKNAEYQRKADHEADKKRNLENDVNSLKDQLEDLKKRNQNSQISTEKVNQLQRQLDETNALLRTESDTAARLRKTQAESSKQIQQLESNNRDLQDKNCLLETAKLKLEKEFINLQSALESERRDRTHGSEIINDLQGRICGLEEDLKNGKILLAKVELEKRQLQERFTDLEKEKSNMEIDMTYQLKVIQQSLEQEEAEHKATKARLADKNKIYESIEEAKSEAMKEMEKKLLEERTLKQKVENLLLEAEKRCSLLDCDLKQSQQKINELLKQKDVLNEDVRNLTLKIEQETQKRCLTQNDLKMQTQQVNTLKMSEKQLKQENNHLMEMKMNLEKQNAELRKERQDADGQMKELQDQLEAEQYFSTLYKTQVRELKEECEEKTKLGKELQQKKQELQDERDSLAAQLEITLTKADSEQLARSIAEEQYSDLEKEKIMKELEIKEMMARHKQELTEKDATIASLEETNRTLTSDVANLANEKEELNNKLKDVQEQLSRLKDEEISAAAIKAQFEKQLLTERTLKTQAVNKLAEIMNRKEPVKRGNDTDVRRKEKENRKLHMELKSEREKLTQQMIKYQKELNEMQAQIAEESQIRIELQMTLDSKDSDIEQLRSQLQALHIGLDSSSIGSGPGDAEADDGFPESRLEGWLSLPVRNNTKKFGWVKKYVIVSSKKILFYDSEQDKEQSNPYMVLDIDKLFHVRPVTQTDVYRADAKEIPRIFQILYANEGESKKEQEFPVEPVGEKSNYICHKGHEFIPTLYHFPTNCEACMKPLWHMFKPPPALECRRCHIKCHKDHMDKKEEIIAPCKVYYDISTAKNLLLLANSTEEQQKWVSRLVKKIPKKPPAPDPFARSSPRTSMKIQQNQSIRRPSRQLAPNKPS

IC50	SMILES
500 to 5000 nM	NC(c1ccc(C(=O)Nc2ccncc2)cc1)C1CCCN1C(=O)Cc1ccc(F)cc1Cl (stereo unspecified)
50 to 500 nM	NC(CC(=O)NC1CCN(Cc2ccccc2)CC1)c1ccc(C(=O)Nc2ccncc2)cc1 (stereo unspecified)
500 to 5000 nM	NC(c1ccc(C(=O)Nc2ccncc2)cc1)C1CCCN1C(=O)Cc1c(F)cccc1Cl (stereo unspecified)
50 to 500 nM	NC(CNC(=O)Cc1cccc(Cl)c1)c1ccc(C(=O)Nc2ccncc2)cc1 (stereo unspecified)
50 to 500 nM	Cc1ccc(CNC(=O)CC(N)c2ccc(C(=O)Nc3ccncc3)cc2)cc1 (stereo unspecified)
50 to 500 nM	NC(CC(=O)NCc1cccc(Cl)c1Cl)c1ccc(C(=O)Nc2ccncc2)cc1 (stereo unspecified)
500 to 5000 nM	CCCCNC(=O)NCC(N)c1ccc(C(=O)Nc2ccncc2)cc1 (stereo unspecified)
50 to 500 nM	NC(CNC(=O)Nc1cccc2ccccc12)c1ccc(C(=O)Nc2ccncc2)cc1 (stereo unspecified)
500 to 5000 nM	NC(CNC(=O)NC1CCCCC1)c1ccc(C(=O)Nc2ccncc2)cc1 (stereo unspecified)
50 to 500 nM	NC(CC(=O)NCC1CC1)c1ccc(C(=O)Nc2ccncc2)cc1 (stereo unspecified)
500 to 5000 nM	CC(C)(C)ON=Cc1ccc(C(=O)NCC(N)c2ccc(C(=O)Nc3ccncc3)cc2)cc1 (stereo unspecified)

Further lines, the compound ahead of its results:

SMILES	IC50
COc1cc(CCNC(=O)CC(N)c2ccc(C(=O)Nc3ccncc3)cc2)cc(OC)c1 (stereo unspecified)	50 to 500 nM
CN(CC(N)c1ccc(C(=O)Nc2ccncc2)cc1)C(=O)C1(c2ccc(Cl)c(Cl)c2)CC1 (stereo unspecified)	500 to 5000 nM
CC(C)(C(=O)N1CCCC1C(N)c1ccc(C(=O)Nc2ccncc2)cc1)c1ccc(F)cc1 (stereo unspecified)	500 to 5000 nM
CN(CC(N)c1ccc(C(=O)Nc2ccncc2)cc1)C(=O)Cc1ccc(O)c([N+](=O)[O-])c1 (stereo unspecified)	50 to 500 nM
COc1cccc(OC)c1CNC(=O)CC(N)c1ccc(C(=O)Nc2ccncc2)cc1 (stereo unspecified)	50 to 500 nM
CN(CC(N)c1ccc(C(=O)Nc2ccncc2)cc1)C(=O)C(C)(C)c1ccsc1 (stereo unspecified)	500 to 5000 nM
NC(c1ccc(C(=O)Nc2ccncc2)cc1)C1CCCN1C(=O)Cc1csc(-c2ccccc2)n1 (stereo unspecified)	500 to 5000 nM
CC(C)(C(=O)N1CCCC1C(N)c1ccc(C(=O)Nc2ccncc2)cc1)c1ccc(Cl)cc1 (stereo unspecified)	500 to 5000 nM
COc1ccc(C2(C(=O)N3CCCC3C(N)c3ccc(C(=O)Nc4ccncc4)cc3)CCCC2)cc1 (stereo unspecified)	500 to 5000 nM
CC(C)(C)c1ccc(CCNC(=O)CC(N)c2ccc(C(=O)Nc3ccncc3)cc2)cc1 (stereo unspecified)	50 to 500 nM
